Experimental data taken from patent US20070169671A1, “Mold Inhibiting Admixture for a Cementitious Material” (priority 2006, published 2007).

System: mold
Test: Mold growth on inoculated cementitious material samples
Format: cell-based
Conditions: cementitious materials formed from mixtures including calcium propionate solutions (0.05, 0.1, 0.2% by weight of concrete ingredients); inoculated with a composition of mold; after two weeks in an environment conducive of mold growth
Excerpt: Samples of cementitious materials formed from a cementitious mixture including the calcium propionate solutions were inoculated with a composition of mold and placed in an environment conducive of mold growth.

CCC(=O)[O-].CCC(=O)[O-].[Ca+2] [calcium propionate]
mold propagation on the cementitious materials: no mold propagation was observed
